# Legend:
# CCRF-CEM = test: NCI DTP cell line screen (SRB), Leukemia; assay type: cell-based
# K-562 = test: NCI DTP cell line screen (SRB), Leukemia; assay type: cell-based
# Procedure: (§1) Screening of compounds 70 and 71 against several cancer cell lines The human tumor cell lines of the cancer screening panel are grown in RPMI 1640 medium containing 5% fetal bovine serum and 2 mM L-glutamine. For a typical screening experiment, cells are inoculated into 96 well microtiter plates in 100 μL at plating densities ranging from 5,000 to 40,000 cells/well depending on the doubling time of individual cell lines. After cell inoculation, the microtiter plates are incubated at 37° C., 5% CO2, 95% air and 100% relative humidity for 24 h prior to addition of experimental drugs.
# (§2) After 24 h, two plates of each cell line are fixed in situ with TCA, to represent a measurement of the cell population for each cell line at the time of drug addition (Tz). Experimental drugs are solubilized in dimethyl sulfoxide at 400-fold the desired final maximum test concentration and stored frozen prior to use. At the time of drug addition, an aliquot of frozen concentrate is thawed and diluted to twice the desired final maximum test concentration with complete medium containing 50 μg/ml gentamicin. Additional four, 10-fold or ½ log serial dilutions are made to provide a total of five drug concentrations plus control. Aliquots of 100 μl of these different drug dilutions are added to the appropriate microtiter wells already containing 100 μl of medium, resulting in the required final drug concentrations.
# (§3) Following drug addition, the plates are incubated for an additional 48 h at 37° C., 5% CO2, 95% air, and 100% relative humidity. For adherent cells, the assay is terminated by the addition of cold TCA. Cells are fixed in situ by the gentle addition of 50 μl of cold 50% (w/v) TCA (final concentration, 10% TCA) and incubated for 60 minutes at 4° C. The supernatant is discarded, and the plates are washed five times with tap water and air dried. Sulforhodamine B (SRB) solution (100 μl) at 0.4% (w/v) in 1% acetic acid is added to each well, and plates are incubated for 10 minutes at room temperature. After staining, unbound dye is removed by washing five times with 1% acetic acid and the plates are air dried. Bound stain is subsequently solubilized with 10 mM trizma base, and the absorbance is read on an automated plate reader at a wavelength of 515 nm. For suspension cells, the methodology is the same except that the assay is terminated by fixing settled cells at the bottom of the wells by gently adding 50 μl of 80% TCA (final concentration, 16% TCA). Using the seven absorbance measurements [time zero, (Tz), control growth, (C), and test growth in the presence of drug at the five concentration levels (Ti)], the percentage growth is calculated at each of the drug concentrations levels. Percentage growth inhibition is calculated as: [(Ti−Tz)/(C−Tz)]×100 for concentrations for which Ti>/=Tz [(Ti−Tz)/Tz]×100 for concentrations for which Ti<Tz
# (§4) Three dose response parameters are calculated for each experimental agent. […] The drug concentration resulting in total growth inhibition (TGI) is calculated from Ti=Tz. […] Values are calculated for each of these three parameters if the level of activity is reached; however, if the effect is not reached or is exceeded, the value for that parameter is expressed as greater or less than the maximum or minimum concentration tested.
# (§5) The methods described were used to test compounds 70 and 71 on a panel of sixty cell lines under a screening service provided by the Developmental Therapeutics Program at the National Institutes of Health. Shown in FIG. 1C are 1, RPMI-8226 leukemia cells; 2; NCI-H322M non-small cell lung cancer cells; 3, HT29 colon cancer cells; 4, U251 CNS cancer cells; 5, SK-MEL-28 melanoma cancer cells; 6, SK-OV-3 ovarian cancer cells; 7, RXF 393 renal cancer cells; 8, PC-3 prostate cancer cells; 9, MDA-MB-231 breast cancer cells.
# MOLT-4 = test: NCI DTP cell line screen (SRB), Leukemia; assay type: cell-based
# Procedure: as §1, §2, §3, §4, §5
# SR = test: NCI DTP cell line screen (SRB), Leukemia; assay type: cell-based
# Procedure: as §1, §2, §3, §4, §5
# COLO 205 = test: NCI DTP cell line screen (SRB), Colon Cancer; assay type: cell-based, human
# Procedure: as §1, §2, §3, §4, §5
# HCT-116 = test: NCI DTP cell line screen (SRB), Colon Cancer; assay type: cell-based
# Procedure: as §1, §2, §3, §4, §5
# KM12 = test: NCI DTP cell line screen (SRB), Colon Cancer; assay type: cell-based
# Procedure: as §1, §2, §3, §4, §5
# SW-620 = test: NCI DTP cell line screen (SRB), Colon Cancer; assay type: cell-based
# Procedure: as §1, §2, §3, §4, §5
# [1] = read-out: LC50 (the source's name)
structure (smiles),measurement,setting,value
"N=C(N)Nc1ccc(-n2nc(C(F)(F)F)cc2-c2ccc3c(ccc4ccccc43)c2)cc1 [Compound 71, 4-[5-(2-Phenanthrenyl)-3-(trifluoromethyl)-1H-pyrazol-1-yl]-phenyl-guanidine]",GI50,CCRF-CEM,1230 nM
same,TGI,CCRF-CEM,2.48E−06
same,Mean Optical Densities,CCRF-CEM; Log10 Concentration −4.0,0.140
same,Percent Growth,CCRF-CEM; Log10 Concentration −4.0,−53%
same,Mean Optical Densities,CCRF-CEM; Log10 Concentration −5.0,0.002
same,Percent Growth,CCRF-CEM; Log10 Concentration −5.0,−99%
same,Mean Optical Densities,CCRF-CEM; Log10 Concentration −6.0,0.718
same,Percent Growth,CCRF-CEM; Log10 Concentration −6.0,65%
same,Mean Optical Densities,CCRF-CEM; Log10 Concentration −7.0,0.811
same,Percent Growth,CCRF-CEM; Log10 Concentration −7.0,79%
same,Mean Optical Densities,CCRF-CEM; Log10 Concentration −8.0,0.808
same,Percent Growth,CCRF-CEM; Log10 Concentration −8.0,78%
same,CC50,CCRF-CEM; [1],5000 nM
same,GI50,K-562,326 nM
same,TGI,K-562,1.52E−06
same,Mean Optical Densities,K-562; Log10 Concentration −4.0,0.119
same,Percent Growth,K-562; Log10 Concentration −4.0,−60%
same,Mean Optical Densities,K-562; Log10 Concentration −5.0,0.126
same,Percent Growth,K-562; Log10 Concentration −5.0,−58%
same,Mean Optical Densities,K-562; Log10 Concentration −6.0,0.438
same,Percent Growth,K-562; Log10 Concentration −6.0,13%
same,Mean Optical Densities,K-562; Log10 Concentration −7.0,1.283
same,Percent Growth,K-562; Log10 Concentration −7.0,89%
same,Mean Optical Densities,K-562; Log10 Concentration −8.0,1.338
same,Percent Growth,K-562; Log10 Concentration −8.0,94%
same,CC50,K-562; [1],7770 nM
same,GI50,MOLT-4,233 nM
same,TGI,MOLT-4,1.98E−06
same,Mean Optical Densities,MOLT-4; Log10 Concentration −4.0,0.143
same,Percent Growth,MOLT-4; Log10 Concentration −4.0,−54%
same,Mean Optical Densities,MOLT-4; Log10 Concentration −5.0,0.143
same,Percent Growth,MOLT-4; Log10 Concentration −5.0,−54%
same,Mean Optical Densities,MOLT-4; Log10 Concentration −6.0,0.461
same,Percent Growth,MOLT-4; Log10 Concentration −6.0,23%
same,Mean Optical Densities,MOLT-4; Log10 Concentration −7.0,0.736
same,Percent Growth,MOLT-4; Log10 Concentration −7.0,66%
same,Mean Optical Densities,MOLT-4; Log10 Concentration −8.0,0.833
same,Percent Growth,MOLT-4; Log10 Concentration −8.0,81%
same,CC50,MOLT-4; [1],8750 nM
same,GI50,SR,38.6 nM
same,TGI,SR,3.79E−07
same,Mean Optical Densities,SR; Log10 Concentration −4.0,0.287
same,Percent Growth,SR; Log10 Concentration −4.0,−21%
same,Mean Optical Densities,SR; Log10 Concentration −5.0,0.234
same,Percent Growth,SR; Log10 Concentration −5.0,−36%
same,Mean Optical Densities,SR; Log10 Concentration −6.0,0.254
same,Percent Growth,SR; Log10 Concentration −6.0,−30%
same,Mean Optical Densities,SR; Log10 Concentration −7.0,0.583
same,Percent Growth,SR; Log10 Concentration −7.0,42%
same,Mean Optical Densities,SR; Log10 Concentration −8.0,0.688
same,Percent Growth,SR; Log10 Concentration −8.0,62%
same,CC50,SR; [1],> 100000 nM
same,GI50,COLO 205,1360 nM
same,TGI,COLO 205,2.69E−06
same,Mean Optical Densities,COLO 205; Log10 Concentration −4.0,0.151
same,Percent Growth,COLO 205; Log10 Concentration −4.0,−32%
same,Mean Optical Densities,COLO 205; Log10 Concentration −5.0,0.009
same,Percent Growth,COLO 205; Log10 Concentration −5.0,−96%
same,Mean Optical Densities,COLO 205; Log10 Concentration −6.0,0.930
same,Percent Growth,COLO 205; Log10 Concentration −6.0,73%
same,Mean Optical Densities,COLO 205; Log10 Concentration −7.0,1.028
same,Percent Growth,COLO 205; Log10 Concentration −7.0,83%
same,Mean Optical Densities,COLO 205; Log10 Concentration −8.0,1.146
same,Percent Growth,COLO 205; Log10 Concentration −8.0,95%
same,GI50,HCT-116,1290 nM
same,TGI,HCT-116,2.55E−06
same,Mean Optical Densities,HCT-116; Log10 Concentration −4.0,0.058
same,Percent Growth,HCT-116; Log10 Concentration −4.0,−49%
same,Mean Optical Densities,HCT-116; Log10 Concentration −5.0,−0.022
same,Percent Growth,HCT-116; Log10 Concentration −5.0,−100%
same,Mean Optical Densities,HCT-116; Log10 Concentration −6.0,0.525
same,Percent Growth,HCT-116; Log10 Concentration −6.0,68%
same,Mean Optical Densities,HCT-116; Log10 Concentration −7.0,0.633
same,Percent Growth,HCT-116; Log10 Concentration −7.0,86%
same,Mean Optical Densities,HCT-116; Log10 Concentration −8.0,0.607
same,Percent Growth,HCT-116; Log10 Concentration −8.0,82%
same,GI50,KM12,1590 nM
same,TGI,KM12,2.97E−06
same,Mean Optical Densities,KM12; Log10 Concentration −4.0,0.307
same,Percent Growth,KM12; Log10 Concentration −4.0,−43%
same,Mean Optical Densities,KM12; Log10 Concentration −5.0,0.013
same,Percent Growth,KM12; Log10 Concentration −5.0,−98%
same,Mean Optical Densities,KM12; Log10 Concentration −6.0,1.777
same,Percent Growth,KM12; Log10 Concentration −6.0,87%
same,Mean Optical Densities,KM12; Log10 Concentration −7.0,1.832
same,Percent Growth,KM12; Log10 Concentration −7.0,91%
same,Mean Optical Densities,KM12; Log10 Concentration −8.0,1.867
same,Percent Growth,KM12; Log10 Concentration −8.0,94%
same,GI50,SW-620,1750 nM
same,TGI,SW-620,3.13E−06
same,Mean Optical Densities,SW-620; Log10 Concentration −4.0,0.015
same,Percent Growth,SW-620; Log10 Concentration −4.0,−92%
same,Mean Optical Densities,SW-620; Log10 Concentration −5.0,−0.048
same,Percent Growth,SW-620; Log10 Concentration −5.0,−100%
same,Mean Optical Densities,SW-620; Log10 Concentration −6.0,1.060
same,Percent Growth,SW-620; Log10 Concentration −6.0,98%
same,Mean Optical Densities,SW-620; Log10 Concentration −7.0,0.993
same,Percent Growth,SW-620; Log10 Concentration −7.0,91%
same,Mean Optical Densities,SW-620; Log10 Concentration −8.0,0.923
same,Percent Growth,SW-620; Log10 Concentration −8.0,83%
